Patent publication US20210253518A1, “KINASE INHIBITOR” (NISSAN CHEMICAL CORPORATION, priority 2018, published 2021)

Experiments:
[1] = test system: YAP, phosphorylated YAP (Ser127), TAZ; assay: Western blotting of YAP, phosphorylated YAP, TAZ in SKOV3 cells (2D and 3D culture); format: cell-based, human; details: 1, 5, 10 μM, 1 hr, both 2D culture and 3D culture, FIG. 1
Description: 2D culture conditions: Human ovarian cancer cell line SKOV3 cultured according to the protocol recommended by DS Pharma Biomedical Co., Ltd. was suspended in McCoy's 5a medium (manufactured by Sigma-Aldrich) containing 15% (v/v) FBS and seeded on a 100 mm plate (manufactured by Corning Incorporated, #430167) at 1,000,000 cells/10 mL and cultured in a CO2 incubator for 24 hr. Successively, k-1:B-1 dissolved in DMSO was added to the culture medium at a final concentration of 1, 5, 10 μM. As the control, the medium without addition and the medium added with DMSO were cultured. After 1 hr, the cells were washed 3 times with ice-cooled phosphate buffered saline (PBS, manufactured by Wako Pure Chemical Industries, Ltd.), 250 μL of RIPA Buffer (manufactured by Wako Pure Chemical Industries, Ltd.) containing a protease inhibitor cocktail (manufactured by Roche) was added, and the cells were lysed with a scraper. […] The supernatant was dispensed, the protein concentration was measured using BCA protein assay kit (manufactured by PIERCE), and then SDS (sodium dodecyl sulfate) gel electrophoresis was performed on the lysate. […] After incubation with a secondary antibody (manufactured by Horseradish peroxidase) linked with an anti-rabbit HRP (horseradish peroxidase) or an anti-mouse HRP, the protein was detected by a chemiluminescence detector (manufactured by BioRad) using ImmunoStar Zeta (manufactured by Wako Pure Chemical Industries, Ltd.).
3D culture conditions: According to the method of patent document (WO 2014/017513), a composition of McCoy's 5a medium (manufactured by Sigma-Aldrich) containing 0.015% (w/v) deacylated gellan gum (KELCOGEL CG-LA, manufactured by Sansho Co., Ltd.), 30 ng/mL human HB-EGF (manufactured by PEPROTECH), and 15% (v/v) FBS was prepared. […] The supernatant was dispensed, the protein concentration was measured using BCA protein assay kit (manufactured by PIERCE), and then SDS gel electrophoresis was performed on the lysate. […]

[2] = test system: colitis model administered with dextran sulfate sodium (DSS); assay: DSS colitis model mouse, length of the large intestine; format: in vivo; details: 2.5 w/v % DSS drinking water, 50 mg/kg intraperitoneally every 24 hr, day 8, vs 0.5% MC, FIG. 3
Description: Colitis model administered with dextran sulfate sodium (DSS) (manufactured by FUJIFILM Wako Pure Chemical Corporation) was produced as described below. The length of the large intestine is used as a morphological parameter in the evaluation of colitis, and the large intestine shortens according to the degree of inflammation. Therefore, the anti-inflammatory effect of the compound was evaluated by comparing the length of the large intestine.
Compound K-1:J-1 was prepared as a 0.5 w/v % methylcellulose aqueous solution (0.5% MC, manufactured by FUJIFILM Wako Pure Chemical Corporation) at 5 mg/mL and intraperitoneally administered at 50 mg/kg per administration. 0.5% MC was administered to the negative control.
As the mouse, male C57BL/6NCrl, 6-week-old, was purchased from CHARLES RIVER LABORATORIES JAPAN, INC. As drinking water, distilled water or a 2.5 w/v % DSS aqueous solution was freely given. The DSS drinking start date was set as day 1, and the water was given until day 8. Compound K-1:J-1 was intraperitoneally administered at 50 mg/kg every 24 hr from day 1. On day 8, the mouse was dissected, the large intestine was isolated and the length of the large intestine was measured. Conducted in 4 cases in each group.

| SMILES | phosphorylation of YAP [1] | total TAZ protein amount in the cell [1] | total YAP protein amount in the cell [1] | length of the large intestine [2] |
| --- | --- | --- | --- | --- |
| CC/C(=N\NC(=O)C(C)Nc1ccccc1)c1ccc(O)c(C)c1O (stereo not shown) [k-1:B-1] | suppressed | increased | increased |  |
| CC/C(=N\NC(=O)NCc1cccc(O)c1)c1ccc(O)c(C)c1O [k-1:J-1] |  |  |  | shortening of the large intestine was suppressed more |
